Data published in patent publication US20250230147A1, “LACTAMS AS CBL-B INHIBITORS” (Genentech, Inc., priority 2021, published 2025).

Assays:
Cbl-b = Cbl-b (Homo sapiens (Human), UniProt Q13191); assay: Cbl-b LCK Ub TR-FRET assay (Cbl-b Lck HTRF); assay type: biochemical
Outline: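 Biotin-Cbl-b preincubated with compound (10-point 3-fold series) 60 min, then His-LCK with 1 mM ATP (2× mixture) added for 90 min at room temperature. Ubiquitination detected by TR-FRET using HA-ubiquitin/UBE2D2 adduct, anti-HA-D2 and streptavidin-Eu; IC50 normalised to no-LCK and DMSO controls.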

c-Cbl = c-Cbl (Homo sapiens (Human), UniProt P22681); assay: C-Cbl LCK Ub TR-FRET assay (c-cbl Lck HTRF); assay type: biochemical; conditions: for (fold-selectivity): C-cbl Lck HTRF IC50 relative to Cbl-b Lck HTRF IC50
Outline: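 Signal is read once the detection mix has stood 20 min at ambient temperature. Curves are anchored by DMSO as maximum and by omission of LCK as minimum.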

c-Cbl, sequence (P22681 47-435): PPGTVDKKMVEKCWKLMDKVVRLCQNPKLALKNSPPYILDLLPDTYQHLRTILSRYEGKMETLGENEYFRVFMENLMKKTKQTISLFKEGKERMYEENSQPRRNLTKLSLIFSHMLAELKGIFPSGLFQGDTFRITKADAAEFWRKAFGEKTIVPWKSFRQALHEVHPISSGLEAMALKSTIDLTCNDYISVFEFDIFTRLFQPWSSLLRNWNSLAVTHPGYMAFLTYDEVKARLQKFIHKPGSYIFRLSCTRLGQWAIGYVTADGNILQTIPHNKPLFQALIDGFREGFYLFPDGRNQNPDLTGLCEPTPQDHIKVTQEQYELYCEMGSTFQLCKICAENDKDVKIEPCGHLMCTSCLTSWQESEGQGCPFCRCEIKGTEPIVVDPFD
Cbl-b, sequence (Q13191 40-426): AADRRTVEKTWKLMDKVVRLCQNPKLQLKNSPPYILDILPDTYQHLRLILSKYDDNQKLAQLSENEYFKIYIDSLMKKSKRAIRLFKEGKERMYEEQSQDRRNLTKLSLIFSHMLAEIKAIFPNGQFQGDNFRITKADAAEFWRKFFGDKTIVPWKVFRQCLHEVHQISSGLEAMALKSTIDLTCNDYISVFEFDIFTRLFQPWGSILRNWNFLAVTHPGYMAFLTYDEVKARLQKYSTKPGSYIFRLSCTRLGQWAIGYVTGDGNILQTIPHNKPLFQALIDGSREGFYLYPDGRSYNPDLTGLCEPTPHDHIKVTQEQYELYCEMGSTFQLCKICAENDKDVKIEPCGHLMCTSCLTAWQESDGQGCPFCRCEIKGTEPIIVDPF

Row | Structure (SMILES) | IC50 (Cbl-b) | IC50 (c-Cbl) | (fold-selectivity) (c-Cbl)
1 | CC(C)[C@H]1CN(C2CC2)CCN1Cc1cc2c(c(C(F)(F)F)c1)CN(c1cccc(C3([C@@H](F)c4nncn4C)COC3)c1)C2=O [Compound 405, 6-(((S)-4-cyclopropyl-2-isopropylpiperazin-1-yl)methyl)-2-(3-(3-((R)-fluoro(4-methyl-4H-1,2,4-triazol-3-yl)methyl)oxetan-3-yl)phenyl)-4-(trifluoromethyl)isoindolin-1-one] | 18 nM | 16 nM | (0.91x)
2 | CC(C)[C@H]1CNCCN1Cc1cc2c(c(C(F)(F)F)c1)CN(c1cccc(C3(Cc4nncn4C)CC(F)(F)C3)c1)C2=O [Compound 219, (S)-2-(3-(3,3-difluoro-1-((4-methyl-4H-1,2,4-triazol-3-yl)methyl)cyclobutyl)phenyl)-6-((2-isopropylpiperazin-1-yl)methyl)-4-(trifluoromethyl)isoindolin-1-one] | 75 nM | 84 nM | 1.1x
3 | Cn1cnnc1[C@@H](F)C1(c2cccc(N3Cc4c(cc(CN5CCC[C@H]5CO)cc4C(F)(F)F)C3=O)c2)COC1 [Compound 150, 2-(3-(3-((S)-fluoro(4-methyl-4H-1,2,4-triazol-3-yl)methyl)oxetan-3-yl)phenyl)-6-(((S)-2-(hydroxymethyl)pyrrolidin-1-yl)methyl)-4-(trifluoromethyl)isoindolin-1-one] | 1400 nM | 1500 nM | 1.1x
4 | Cn1cnnc1[C@@H](F)C1(c2cccc(N3Cc4c(cc(CN5CC(C)(CCl)C5)cc4C(F)(F)F)C3=O)c2)COC1 [Compound 104, (S)-6-((3-(chloromethyl)-3-methylazetidin-1-yl)methyl)-2-(3-(3-(fluoro(4-methyl-4H-1,2,4-triazol-3-yl)methyl)oxetan-3-yl)phenyl)-4-(trifluoromethyl)isoindolin-1-one] | 48 nM | 89 nM | 1.9x
5 | CC(C)[C@H]1CN(C)CCN1Cc1cc2c(c(C(F)(F)F)c1)CN(c1cccc(C3([C@@H](F)c4nncn4C4CCCCC4)COC3)c1)C2=O [Compound 454, 2-(3-(3-((R)-(4-cyclohexyl-4H-1,2,4-triazol-3-yl)fluoromethyl)oxetan-3-yl)phenyl)-6-(((S)-2-isopropyl-4-methylpiperazin-1-yl)methyl)-4-(trifluoromethyl)isoindolin-1-one] | 11000 nM | 6200 nM | (0.57x)
6 | CNCc1cc2c(c(C(F)(F)F)c1)CN(c1cc(C3(Cc4nncn4C)COC3)cc(NC3CCCC3)n1)C2=O [Compound 277, 2-(6-(cyclopentylamino)-4-(3-((4-methyl-4H-1,2,4-triazol-3-yl)methyl)oxetan-3-yl)pyridin-2-yl)-6-((methylamino)methyl)-4-(trifluoromethyl)isoindolin-1-one] | 230 nM | 870 nM | (3.8x)
7 | CCNc1cc(N2Cc3c(cc(CNC4(C)CCC4)cc3C(F)(F)F)C2=O)cc(C2(Cc3nncn3C)CC(F)(F)C2)c1 [Compound 466, 2-(3-(3,3-difluoro-1-((4-methyl-4H-1,2,4-triazol-3-yl)methyl)cyclobutyl)-5-(ethylamino)phenyl)-6-(((1-methylcyclobutyl)amino)methyl)-4-(trifluoromethyl)isoindolin-1-one] | 6.4 nM | 6.1 nM | (0.96x)
8 | Cn1cnnc1[C@H](F)C1(c2cccc(N3Cc4c(cc(CN5CC6(CCC6)C5)cc4C(F)(F)F)C3=O)c2)COC1 [Compound 165, (R)-6-(2-azaspiro[3.3]heptan-2-ylmethyl)-2-(3-(3-(fluoro(4-methyl-4H-1,2,4-triazol-3-yl)methyl)oxetan-3-yl)phenyl)-4-(trifluoromethyl)isoindolin-1-one] | 35 nM | 73 nM | 2.1x
